Data taken from PubChem BioAssay (NCI).
Where “and” joins values, the source holds several entries; their conditions need not be identical. Identical values can stand only once.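 These data come from cells grown in 96-well plates and exposed to compound for 48 hours at five concentrations. GI50 is the concentration that inhibits growth by half. Definition used: TGI = concentration required for complete inhibition of growth.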

What was measured:
Assay in all cases: NCI-60 cell line screen, 48 h
[1] = test system: A498 renal
[2] = test system: UACC-257 melanoma
[3] = test system: MDA-MB-231 breast
[4] = test system: RPMI-8226 leukemia
[5] = test system: CCRF-CEM leukemia
[6] = test system: MOLT-4 leukemia
[7] = test system: SF-295 CNS
[8] = test system: MCF7 breast
[9] = test system: MDA-MB-435
[10] = test system: NCI-H460 lung
[11] = test system: T-47D breast
[12] = test system: IGROV1 ovarian
[13] = test system: SN12C renal
[14] = test system: TK-10 renal
[15] = test system: SF-539 CNS
[16] = test system: HS 578T breast
[17] = test system: A549 NSCLC
[18] = test system: SW-620 colon
[19] = test system: NCI/ADR-RES ovarian
[20] = test system: UACC-62 melanoma
[21] = test system: M14 melanoma
[22] = test system: KM12 colon
[23] = test system: HCT-116 colon
[24] = test system: NCI-H226 lung
[25] = test system: ACHN renal
[26] = test system: SR leukemia
[27] = test system: UO-31 renal
[28] = test system: SK-MEL-28 melanoma
[29] = test system: 786-0 renal
[30] = test system: HL-60(TB) leukemia
[31] = test system: LOX IMVI melanoma
[32] = test system: MALME-3M melanoma
[33] = test system: SNB-75 CNS
[34] = test system: COLO 205 colon
[35] = test system: HCT-15 colon
[36] = test system: HCC-2998 colon
[37] = test system: PC-3 prostate
[38] = test system: SK-MEL-2 melanoma
[39] = test system: K-562 leukemia
[40] = test system: SK-OV-3 ovarian
[41] = test system: SK-MEL-5 melanoma
[42] = test system: OVCAR-3 ovarian
[43] = test system: HOP-62 NSCLC
[44] = test system: DU-145 prostate
[45] = test system: NCI-H522 lung
[46] = test system: CAKI-1 renal
[47] = test system: OVCAR-5 ovarian
[48] = test system: NCI-H23 lung
[49] = test system: BT-549 breast
[50] = test system: SF-268 CNS
[51] = test system: SNB-19 CNS
[52] = test system: HOP-92 NSCLC
[53] = test system: U251 CNS
[54] = test system: HT29 colon
[55] = test system: OVCAR-4 ovarian
[56] = test system: OVCAR-8 ovarian
[57] = test system: RXF 393 renal
[58] = test system: EKVX NSCLC

For O=C(O)C(=O)CBr, the GI50 [1] was greater than 100 µM, the TGI [1] was greater than 100 µM and the GI50 [2] was > 78.3 µM and 18.4 µM. The TGI [2] was > 100 µM and 33.6 µM, the GI50 [3] was greater than 100 µM and the TGI [3] was greater than 100 µM. The GI50 [4] was > 48.9 µM and 26.8 µM, the TGI [4] was > 73.5 µM and 55.6 µM and the GI50 [5] was 14.4 µM and 7.12 µM. For the same molecule, the TGI [5] was > 52.2 µM and 38.6 µM, the GI50 [6] was > 40.6 µM and 21.9 µM and the TGI [6] was > 72.9 µM and 51.9 µM. The GI50 [7] was greater than 100 µM, the TGI [7] was greater than 100 µM and the GI50 [8] was > 61.4 µM and 29.3 µM. For the same molecule, the TGI [8] was > 100 µM and 94.7 µM, the GI50 [9] was > 70.4 µM and 18 µM and the TGI [9] was > 100 µM and 32.7 µM. For the same molecule, the GI50 [10] was > 100 µM and 21.2 µM, the TGI [10] was > 100 µM and 41.9 µM and the GI50 [11] was > 100 µM and 25.5 µM. For the same molecule, the TGI [11] was > 100 µM and 64.7 µM, the GI50 [12] was 33.5 µM and 62.1 µM and the TGI [12] was greater than 100 µM. The GI50 [13] was > 46.2 µM and 19.1 µM, the TGI [13] was > 64 µM and 34.5 µM and the GI50 [14] was > 39.7 µM and 11.4 µM. The TGI [14] was > 55.3 µM and 24.6 µM, the GI50 [15] was > 41.1 µM and 16.8 µM and the TGI [15] was > 56.3 µM and 31.5 µM. For the same molecule, the GI50 [16] was > 100 µM and 29.2 µM, the TGI [16] was > 100 µM and 72.4 µM and the GI50 [17] was > 100 µM and 25 µM. For the same molecule, the TGI [17] was > 100 µM and 52.2 µM, the GI50 [18] was 6.8 µM and the TGI [18] was > 35.3 µM and 21.6 µM. For the same molecule, the GI50 [19] was > 54.6 µM and 20.2 µM, the TGI [19] was > 94.4 µM and 44 µM and the GI50 [20] was > 44.7 µM and 19 µM. For the same molecule, the TGI [20] was > 62.5 µM and 35.3 µM, the GI50 [21] was > 89.1 µM and 44 µM and the TGI [21] was greater than 100 µM. For the same molecule, the GI50 [22] was > 100 µM and 19 µM, the TGI [22] was > 100 µM and 34.5 µM and the GI50 [23] was > 38.9 µM and 18.5 µM. For the same molecule, the TGI [23] was > 54.2 µM and 33.3 µM, the GI50 [24] was greater than 100 µM and the TGI [24] was greater than 100 µM. For the same molecule, the GI50 [25] was > 35.8 µM and 16.3 µM, the TGI [25] was > 53.9 µM and 31.6 µM and the GI50 [26] was > 21.1 µM and 25.8 µM. The TGI [26] was > 64.8 µM and 71.1 µM, the GI50 [27] was > 38 µM and 17.3 µM and the TGI [27] was > 54.7 µM and 31.8 µM. For the same molecule, the GI50 [28] was > 42.4 µM and 16.6 µM, the TGI [28] was > 62.8 µM and 32.2 µM and the GI50 [29] was 16.9 µM and 21.7 µM. For the same molecule, the TGI [29] was 31.3 µM and 36.5 µM, the GI50 [30] was 12.1 µM and 18.9 µM and the TGI [30] was 46.1 µM and 45.1 µM. The GI50 [31] was > 44.4 µM and 17.3 µM, the TGI [31] was > 63.1 µM and 31.8 µM and the GI50 [32] was > 41.7 µM and 16.9 µM. The TGI [32] was > 59.1 µM and 32.5 µM, the GI50 [33] was > 100 µM and 25.2 µM and the TGI [33] was > 100 µM and 60.3 µM. The GI50 [34] was > 70.1 µM and 17.6 µM, the TGI [34] was > 100 µM and 39.5 µM and the GI50 [35] was > 35.2 µM and 17.3 µM. For the same molecule, the TGI [35] was > 53.1 µM and 33.1 µM, the GI50 [36] was > 100 µM and 19.3 µM and the TGI [36] was > 100 µM and 36.3 µM. The GI50 [37] was > 51.6 µM and 19.5 µM, the TGI [37] was > 81.7 µM and 37.1 µM and the GI50 [38] was > 100 µM and 20 µM. The TGI [38] was > 100 µM and 37.5 µM, the GI50 [39] was > 22.2 µM and 23.8 µM and the TGI [39] was > 68.2 µM and 59.1 µM. The GI50 [40] was > 100 µM and 19.7 µM, the TGI [40] was > 100 µM and 36 µM and the GI50 [41] was > 100 µM and 65.8 µM. For the same molecule, the TGI [41] was greater than 100 µM, the GI50 [42] was > 21.1 µM and 3.61 µM and the TGI [42] was > 40.2 µM and 13 µM. The GI50 [43] was > 100 µM and 19.3 µM, the TGI [43] was > 100 µM and 38.1 µM and the GI50 [44] was > 61.9 µM and 17 µM. The TGI [44] was > 100 µM and 31.4 µM, the GI50 [45] was 2.22 µM and the TGI [45] was > 31.9 µM and 4.66 µM. For the same molecule, the GI50 [46] was > 32.5 µM and 14.7 µM, the TGI [46] was > 47.3 µM and 28 µM and the GI50 [47] was > 44.2 µM and 18.4 µM. For the same molecule, the TGI [47] was > 64.8 µM and 37.5 µM, the GI50 [48] was > 48.4 µM and 19.9 µM and the TGI [48] was > 74 µM and 39.5 µM. The GI50 [49] was > 47.6 µM and 20 µM, the TGI [49] was > 77.9 µM and 35.2 µM and the GI50 [50] was > 85.2 µM and 18.3 µM. The TGI [50] was > 100 µM and 32.5 µM, the GI50 [51] was greater than 100 µM and the TGI [51] was greater than 100 µM. For the same molecule, the GI50 [52] was > 33.2 µM and 19.1 µM, the TGI [52] was > 49.9 µM and 34 µM and the GI50 [53] was > 100 µM and 21.6 µM. The TGI [53] was > 100 µM and 42.9 µM, the GI50 [54] was > 47.5 µM and 25.3 µM and the TGI [54] was > 76.8 µM and 62.5 µM. The GI50 [55] was 17.5 µM and 17.4 µM, the TGI [55] was 31.4 µM and the GI50 [56] was > 43.4 µM and 19.5 µM. For the same molecule, the TGI [56] was > 59.7 µM and 36.7 µM, the GI50 [57] was 64 µM and 17 µM and the TGI [57] was > 100 µM and 31 µM. For the same molecule, the GI50 [58] was > 100 µM and 18.9 µM and the TGI [58] was > 100 µM and 36.7 µM.
